Several values for one entry are separate records, joined by “and”; a condition that tells them apart may be missing. Identical values can stand only once. Entries after “also recorded” stand apart in the source; their conditions may differ.
What was measured:
HDAC6 [1] = target: T1, HDAC6 (Homo sapiens, UniProt Q9UBN7); conditions: ref Zhou et al. [2019]; cited from earlier work
T1 sequence (Q9UBN7 1-1215): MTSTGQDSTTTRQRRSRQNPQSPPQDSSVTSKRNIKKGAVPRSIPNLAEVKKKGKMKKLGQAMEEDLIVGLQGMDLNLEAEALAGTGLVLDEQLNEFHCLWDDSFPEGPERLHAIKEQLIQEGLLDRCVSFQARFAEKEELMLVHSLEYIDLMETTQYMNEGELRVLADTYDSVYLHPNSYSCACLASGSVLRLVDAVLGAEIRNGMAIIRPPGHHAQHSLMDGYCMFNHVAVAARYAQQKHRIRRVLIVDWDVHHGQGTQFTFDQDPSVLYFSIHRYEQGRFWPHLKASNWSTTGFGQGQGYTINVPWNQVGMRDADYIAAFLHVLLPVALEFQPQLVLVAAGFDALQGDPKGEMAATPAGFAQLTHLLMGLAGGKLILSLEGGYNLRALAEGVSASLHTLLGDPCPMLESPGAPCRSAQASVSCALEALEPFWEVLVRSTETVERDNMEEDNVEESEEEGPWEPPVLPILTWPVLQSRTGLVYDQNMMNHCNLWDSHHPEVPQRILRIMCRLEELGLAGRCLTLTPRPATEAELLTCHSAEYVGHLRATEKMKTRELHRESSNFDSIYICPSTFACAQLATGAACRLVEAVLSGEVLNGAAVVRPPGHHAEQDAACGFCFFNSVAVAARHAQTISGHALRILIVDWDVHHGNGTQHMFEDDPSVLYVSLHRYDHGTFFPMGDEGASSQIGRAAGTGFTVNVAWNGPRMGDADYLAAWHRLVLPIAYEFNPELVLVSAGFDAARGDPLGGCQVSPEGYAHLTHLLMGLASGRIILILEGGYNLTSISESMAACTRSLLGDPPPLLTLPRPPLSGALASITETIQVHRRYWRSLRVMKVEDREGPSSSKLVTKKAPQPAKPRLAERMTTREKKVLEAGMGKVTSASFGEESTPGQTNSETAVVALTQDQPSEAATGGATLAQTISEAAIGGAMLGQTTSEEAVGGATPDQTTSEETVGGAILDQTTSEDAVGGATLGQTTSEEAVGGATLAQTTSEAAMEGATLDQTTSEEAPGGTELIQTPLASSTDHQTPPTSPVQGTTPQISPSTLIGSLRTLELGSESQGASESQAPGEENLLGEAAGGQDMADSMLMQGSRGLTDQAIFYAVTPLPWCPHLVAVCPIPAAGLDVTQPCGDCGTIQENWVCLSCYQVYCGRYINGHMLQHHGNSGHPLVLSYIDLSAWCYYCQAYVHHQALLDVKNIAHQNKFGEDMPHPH

[2] = Solubility under the assay conditions; format: physicochemical; conditions: HDAC, BCL‐2 and cell assays; data not reliable, not reported
HDAC1 = target: T2, HDAC1 (Homo sapiens, UniProt Q13547); experiment: HDAC1 fluorogenic assay (BPS Bioscience 50061, run by Nanosyn); format: biochemical; conditions: for IC50: cell‐free fluorogenic assay, duplicate, errors are SEMs
T2 construct: purchased BPS Bioscience (assay run by Nanosyn) 50061
T2 sequence (Q13547 whole entry): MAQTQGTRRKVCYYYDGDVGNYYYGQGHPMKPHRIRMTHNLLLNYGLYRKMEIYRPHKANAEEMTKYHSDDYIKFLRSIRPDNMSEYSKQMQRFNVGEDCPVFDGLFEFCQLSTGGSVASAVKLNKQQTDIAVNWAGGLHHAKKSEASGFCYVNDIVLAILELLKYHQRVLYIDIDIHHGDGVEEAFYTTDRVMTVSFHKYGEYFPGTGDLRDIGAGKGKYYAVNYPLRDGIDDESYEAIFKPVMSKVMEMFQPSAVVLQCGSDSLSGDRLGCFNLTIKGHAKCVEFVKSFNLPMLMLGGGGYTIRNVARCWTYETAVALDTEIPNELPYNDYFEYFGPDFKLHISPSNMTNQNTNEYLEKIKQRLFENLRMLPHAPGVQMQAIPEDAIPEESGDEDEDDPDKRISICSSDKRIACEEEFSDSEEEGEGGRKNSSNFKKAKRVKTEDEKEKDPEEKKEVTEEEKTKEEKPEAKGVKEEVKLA

MV4;11 cells [3] = experiment: alamarBlue cell metabolism/viability assay, MV4;11; format: cell-based, human; conditions: Homo sapiens, MV4-11, alamarBlue, at least triplicate, errors are SEMs
Excerpt: (§1) As described previously, MOLM14 and MV4;11 cell lines (both human AML cell lines harboring both mixed‐lineage‐leukemia (KMT2A) rearrangement and FLT3‐ITD mutations) were obtained from DSMZ (Branschweig, DEU) and ATCC (Manassas, VA), respectively (Goodis et al. [2024]; Moses et al. [2021]); MV4;11 BCL‐2 over‐expressing (OE) cells were generated via lentiviral transduction as described previously (Empty Vector AddGene #227688; BLC‐2 OE AddGene #227690) (Goodis et al. [2024]).
(§2) Cell lines were cultured in RPMI 1640 media (Cellgro, # MDT‐10‐040‐CV) containing 10% fetal bovine serum (Gemini BioProducts #100‐106) and passaged twice per week to maintain cultures in log‐phase‐growth. Upon receipt or derivation, cell lines were expanded and multiple aliquots cryopreserved in DMSO‐containing medium in the vapor phase of liquid nitrogen. Cells were genetically authenticated and confirmed to be mycoplasma‐negative before cryopreservation. Cells from a given cryopreserved aliquot were cultured for no more than 3–4 months.
(§3) AnnV/7AAD assays were assessed by flow cytometry and analyzed using FlowLogic software v8.7.
(§4) Our dual inhibitors were next evaluated in an alamarBlue^TM cell metabolism/viability assay against 3 human AML cell lines: MOLM14, MV4;11, and MV4;11 BCL‐2 overexpressing (OE). […] However, pleasingly, several of our top compounds based on the cell‐free assay results also performed well in the AML cell‐based metabolism/viability assays.

[4] = test system: MV4;11 BCL‐2 over‐expressing (OE) cells; experiment: alamarBlue cell metabolism/viability assay, MV4;11 BCL‐2 OE; format: cell-based; conditions: Homo sapiens, MV4-11, alamarBlue, at least triplicate, errors are SEMs; read-out: IC50 MV4;11 BCL‐2 OE
Excerpt: as §1, §2, §3, §4

HDAC6 [5] = target: T1, HDAC6; experiment: HDAC6 fluorogenic assay (BPS Bioscience 50076, run by Nanosyn)
MV4;11 cells [6] = experiment: Annexin V/7AAD apoptosis/death assay by flow cytometry; format: cell-based, human; conditions: 200 nM; for induction of apoptosis compared with venetoclax: MV4;11; for viability at 0.2 µM: Homo sapiens, 48 h, MV4;11, in Figure 2, read-out: viable cells (AnnV‐/7AAD‐), lower left quadrant
Protocol: as §3
Figure 2 Apoptotic cell death of MV4;11 AML cells. […] As a negative control, an equi‐volume of DMSO‐treated sample was also assessed. Flow cytometric dot plots of 200 nM‐treated MV4;11 cells stained with Annexin‐V and 7AAD depict the gating strategy used to delineate viable cells (AnnV‐/7AAD‐), early apoptotic cells (AnnV+/7AAD‐), and late apoptotic cells (AnnV+/7AAD +).

BCL‐2 = target: T3, BCL‐2 (Homo sapiens, UniProt P10415); experiment: BCL‐2 TR‐FRET assay (BPS Bioscience 50222, run by Nanosyn); format: binding; conditions: cell‐free TR‐FRET assay, duplicate, errors are SEMs
T3 construct: purchased BPS Bioscience (assay run by Nanosyn) 50222
T3 sequence (P10415 whole entry): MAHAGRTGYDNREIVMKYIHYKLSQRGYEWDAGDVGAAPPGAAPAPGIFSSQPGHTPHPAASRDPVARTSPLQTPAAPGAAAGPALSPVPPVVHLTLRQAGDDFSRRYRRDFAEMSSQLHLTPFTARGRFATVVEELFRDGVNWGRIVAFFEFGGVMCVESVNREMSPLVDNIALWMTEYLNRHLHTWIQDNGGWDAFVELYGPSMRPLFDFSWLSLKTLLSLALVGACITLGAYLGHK

MOLM14 cells = experiment: alamarBlue cell metabolism/viability assay, MOLM14; format: cell-based; conditions: Homo sapiens, MOLM-14, at least triplicate, errors are SEMs, read-out: IC50 MOLM‐14
Excerpt: as §1, §2, §3, §4

For `O=C(CCCCCCC(=O)Nc1ccccc1)NO` [SAHA], the “selectivity for HDAC6 over HDAC1” value (HDAC6 [1]) is listed as “about threefold”.

With `CC1(C)CCC(CN2CCN(c3ccc(C(=O)NS(=O)(=O)c4ccc(NCC5CCN(c6c(F)cc(C(=O)NO)cc6F)CC5)c([N+](=O)[O-])c4)c(Oc4cnc5[nH]ccc5c4)c3)CC2)=C(c2ccc(Cl)cc2)C1` [AMC‐4‐101, 4‐(4‐(((4‐(N‐(2‐((1H‐pyrrolo[2,3‐b]pyridin‐5‐yl)oxy)‐4‐(4‐((4′‐chloro‐5,5‐dimethyl‐3,4,5,6‐tetrahydro‐[1,1′‐biphenyl]‐2‐yl)methyl)piperazin‐1‐yl)benzoyl)sulfamoyl)‐2‐nitrophenyl)amino)methyl)piperidin‐1‐yl)‐3,5‐difluoro‐N‐hydroxybenzamide] the “solubility under the assay conditions” value [2] was “Limited solubility”.

In the case of `CC1(C)CCC(CN2CCN(c3ccc(C(=O)NS(=O)(=O)c4ccc(NCc5ccc(C(=O)Nc6ccccc6N)cc5)c([N+](=O)[O-])c4)c(Oc4cnc5[nH]ccc5c4)c3)CC2)=C(c2ccc(Cl)cc2)C1` [BD‐4‐213, 2‐((1H‐pyrrolo[2,3‐b]pyridin‐5‐yl)oxy)‐N‐((4‐((4‐((2‐aminophenyl)carbamoyl)benzyl)amino)‐3‐nitrophenyl)sulfonyl)‐4‐(4‐((4′‐chloro‐5,5‐dimethyl‐3,4,5,6‐tetrahydro‐[1,1′‐biphenyl]‐2‐yl)methyl)piperazin‐1‐yl)benzamide], the IC50 (HDAC1) is reported as 2880 ± 570 nM, the “selectivity for HDAC1 over HDAC6” value (HDAC1; ratio of IC50 values) is reported as over 10 fold and the IC50 (MV4;11 cells [3]) is reported as 19.3 ± 5.6 nM. The IC50 [4] was 342 ± 55 nM, the IC50 (HDAC6 [5]) was over 30000 nM and the “induction of apoptosis compared with venetoclax” value (MV4;11 cells [6]) was “induced apoptosis similar to venetoclax”. For the same molecule, the viability at 0.2 µM (MV4;11 cells [6]) was 43.9%, the IC50 (BCL‐2) was < 1 nM and 0.539 nM and the IC50 (MOLM14 cells) was 1630 ± 36 nM.

In the case of `CC1(C)CCC(CN2CCN(c3ccc(C(=O)NS(=O)(=O)c4ccc(NCc5ccc(C(=O)Nc6ccc(-c7cccs7)cc6N)cc5)c([N+](=O)[O-])c4)c(Oc4cnc5[nH]ccc5c4)c3)CC2)=C(c2ccc(Cl)cc2)C1` [AMC‐4‐074, 2‐((1H‐pyrrolo[2,3‐b]pyridin‐5‐yl)oxy)‐N‐((4‐((4‐((2‐amino‐4‐(thiophen‐2‐yl)phenyl)carbamoyl)benzyl)amino)‐3‐nitrophenyl)sulfonyl)‐4‐(4‐((4′‐chloro‐5,5‐dimethyl‐3,4,5,6‐tetrahydro‐[1,1′‐biphenyl]‐2‐yl)methyl)piperazin‐1‐yl)benzamide], the “solubility under the assay conditions” value [2] is reported as “solubility proved problematic; also recorded: Limited solubility”.

With `CC1(C)CCC(CN2CCN(c3ccc(C(=O)NS(=O)(=O)c4ccc(NCC5CCN(c6ccc(C(=O)NO)cc6)CC5)c([N+](=O)[O-])c4)c(Oc4cnc5[nH]ccc5c4)c3)CC2)=C(c2ccc(Cl)cc2)C1` [AMC‐4‐154, 2‐((1H‐pyrrolo[2,3‐b]pyridin‐5‐yl)oxy)‐4‐(4‐((4′‐chloro‐5,5‐dimethyl‐3,4,5,6‐tetrahydro‐[1,1′‐biphenyl]‐2‐yl)methyl)piperazin‐1‐yl)‐N‐((4‐(((1‐(4‐(hydroxycarbamoyl)phenyl)piperidin‐4‐yl)methyl)amino)‐3‐nitrophenyl)sulfonyl)benzamide] the IC50 (HDAC1) was over 30000 nM, the IC50 (MV4;11 cells [3]) was 66.2 ± 13.6 nM and the IC50 [4] was 631 ± 50 nM. For the same molecule, the IC50 (HDAC6 [5]) was 8710 ± 1890 nM, the “selectivity for HDAC6 over HDAC1 (HDAC6/1 selectivity)” value (HDAC6 [5]; ratio of IC50 values) was over 3 fold and the “induction of apoptosis compared with venetoclax” value (MV4;11 cells [6]) was “induced apoptosis similar to venetoclax”. The viability at 0.2 µM (MV4;11 cells [6]) was 49.2%, the IC50 (BCL‐2) was 0.554 ± 0.045 nM and the IC50 (MOLM14 cells) was over 10000 nM.

Source: article PMC12079163 (Drug Development Research, 2025)
